Molecular target: recombinant human SAE enzyme (Homo sapiens (Human), UniProt Q9UBT2)
Test: SAE HTRF enzyme assay
Format: biochemical
Conditions: for Percent Inhibition: SAE inhibition at compound concentration 0.111 μM; for IC50: SAE inhibition, class symbols, legend in nM
How it was run: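 Enzyme reaction: 50 mM HEPES pH 7.5, 5 mM MgCl2, 250 μM GSH, 0.05% BSA, 0.5 μM ATP, 0.01 μM Ubc9-GST, 0.125 μM Sumo-Flag, 0.11 nM SAE; 105 min, 24° C. Stop/detect, 2 h, then HTRF. % inh or IC50.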

Chain of recombinant human SAE enzyme (Q9UBT2 whole entry): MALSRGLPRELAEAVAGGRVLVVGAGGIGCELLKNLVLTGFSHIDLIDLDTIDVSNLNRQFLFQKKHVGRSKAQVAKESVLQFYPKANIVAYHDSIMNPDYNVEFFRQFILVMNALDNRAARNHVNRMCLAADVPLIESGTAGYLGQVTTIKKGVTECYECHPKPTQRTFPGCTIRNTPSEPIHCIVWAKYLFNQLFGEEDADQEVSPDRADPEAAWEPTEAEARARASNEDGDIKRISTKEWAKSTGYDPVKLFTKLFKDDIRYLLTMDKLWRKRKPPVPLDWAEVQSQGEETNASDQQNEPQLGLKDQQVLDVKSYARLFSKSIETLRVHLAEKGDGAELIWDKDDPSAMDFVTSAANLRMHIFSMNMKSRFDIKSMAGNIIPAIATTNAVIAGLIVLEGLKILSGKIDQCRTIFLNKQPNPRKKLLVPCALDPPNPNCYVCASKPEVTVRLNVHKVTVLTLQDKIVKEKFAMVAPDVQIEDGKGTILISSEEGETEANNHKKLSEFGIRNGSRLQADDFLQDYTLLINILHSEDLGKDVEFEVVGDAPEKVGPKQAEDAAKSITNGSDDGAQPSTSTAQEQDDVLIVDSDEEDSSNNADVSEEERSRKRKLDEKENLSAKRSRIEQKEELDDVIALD
Chain of recombinant human SAE enzyme (Q9UBE0 whole entry partner): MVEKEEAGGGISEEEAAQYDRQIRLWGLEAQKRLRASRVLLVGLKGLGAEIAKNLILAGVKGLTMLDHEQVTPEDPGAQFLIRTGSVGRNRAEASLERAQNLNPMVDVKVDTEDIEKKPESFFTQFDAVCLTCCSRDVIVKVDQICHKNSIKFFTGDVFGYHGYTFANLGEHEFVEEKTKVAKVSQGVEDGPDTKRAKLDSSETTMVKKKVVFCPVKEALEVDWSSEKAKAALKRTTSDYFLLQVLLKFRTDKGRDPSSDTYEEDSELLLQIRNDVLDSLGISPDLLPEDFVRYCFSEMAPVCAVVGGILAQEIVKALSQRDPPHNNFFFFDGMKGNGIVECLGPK

Compound | Percent Inhibition [%] | IC50 [nM]
NS(=O)(=O)OC[C@H]1C[C@@H](Nc2ncncc2C(=O)c2cc([C@@H]3OCCc4ccc(Cl)cc43)c(Cl)s2)C[C@@H]1O (single isomer, unassigned) [I-282a, [(1R,2S,4R)-4-{[5-({5-chloro-4-[(1R)-7-chloro-3,4-dihydro-1H-isochromen-1-yl]-2-thienyl}carbonyl)pyrimidin-4-yl]amino}-2-hydroxycyclopentyl]methyl sulfamate or [(1R,2S,4R)-4-{[5-({5-chloro-4-[(1S)-7-chloro-3,4-dihydro-1H-isochromen-1-yl]-2-thienyl}carbonyl)pyrimidin-4-yl]amino}-2-hydroxycyclopentyl]methyl sulfamate] | 37 | 100 to 1000
NS(=O)(=O)OC[C@H]1C[C@@H](Nc2ncncc2C(=O)c2cc([C@@H]3OCCc4ccc(Cl)cc43)c(Cl)s2)C[C@@H]1O (single isomer, unassigned) [I-282b, [(1R,2S,4R)-4-{[5-({5-chloro-4-[(1R)-7-chloro-3,4-dihydro-1H-isochromen-1-yl]-2-thienyl}carbonyl)pyrimidin-4-yl]amino}-2-hydroxycyclopentyl]methyl sulfamate or [(1R,2S,4R)-4-{[5-({5-chloro-4-[(1S)-7-chloro-3,4-dihydro-1H-isochromen-1-yl]-2-thienyl}carbonyl)pyrimidin-4-yl]amino}-2-hydroxycyclopentyl]methyl sulfamate] | 102 | < 10
NS(=O)(=O)OC[C@H]1C[C@@H](Nc2ncncc2C(=O)c2cc([C@@H]3NCCc4ccccc43)cs2)C[C@@H]1O (single isomer, unassigned) [I-283a, [(1R,2S,4R)-2-hydroxy-4-{[5-({4-[(1R)-1,2,3,4-tetrahydroisoquinolin-1-yl]-2-thienyl}carbonyl)pyrimidin-4-yl]amino}cyclopentyl]methyl sulfamate or [(1R,2S,4R)-2-hydroxy-4-{[5-({4-[(1S)-1,2,3,4-tetrahydroisoquinolin-1-yl]-2-thienyl}carbonyl)pyrimidin-4-yl]amino}cyclopentyl]methyl sulfamate] | 99 | < 10
NS(=O)(=O)OC[C@H]1C[C@@H](Nc2ncncc2C(=O)c2cc([C@@H]3NCCc4ccccc43)cs2)C[C@@H]1O (single isomer, unassigned) [I-283b, [(1R,2S,4R)-2-hydroxy-4-{[5-({4-[(1R)-1,2,3,4-tetrahydroisoquinolin-1-yl]-2-thienyl}carbonyl)pyrimidin-4-yl]amino}cyclopentyl]methyl sulfamate or [(1R,2S,4R)-2-hydroxy-4-{[5-({4-[(1S)-1,2,3,4-tetrahydroisoquinolin-1-yl]-2-thienyl}carbonyl)pyrimidin-4-yl]amino}cyclopentyl]methyl sulfamate] | 93 | 10 to 100
CN1Cc2ccc(Cl)cc2[C@@H]1c1cc(C(=O)c2cncnc2N[C@@H]2C[C@H](COS(N)(=O)=O)[C@@H](O)C2)sc1Cl (single isomer, unassigned) [I-284a, [(1R,2S,4R)-4-{[5-({5-chloro-4-[(1R)-6-chloro-2-methyl-2,3-dihydro-1H-isoindol-1-yl]-2-thienyl}carbonyl)pyrimidin-4-yl]amino}-2-hydroxycyclopentyl]methyl sulfamate or [(1R,2S,4R)-4-{[5-({5-chloro-4-[(1S)-6-chloro-2-methyl-2,3-dihydro-1H-isoindol-1-yl]-2-thienyl}carbonyl)pyrimidin-4-yl]amino}-2-hydroxycyclopentyl]methyl sulfamate] | 49 | 100 to 1000
CN1Cc2ccc(Cl)cc2[C@@H]1c1cc(C(=O)c2cncnc2N[C@@H]2C[C@H](COS(N)(=O)=O)[C@@H](O)C2)sc1Cl (single isomer, unassigned) [I-284b, [(1R,2S,4R)-4-{[5-({5-chloro-4-[(1R)-6-chloro-2-methyl-2,3-dihydro-1H-isoindol-1-yl]-2-thienyl}carbonyl)pyrimidin-4-yl]amino}-2-hydroxycyclopentyl]methyl sulfamate or [(1R,2S,4R)-4-{[5-({5-chloro-4-[(1S)-6-chloro-2-methyl-2,3-dihydro-1H-isoindol-1-yl]-2-thienyl}carbonyl)pyrimidin-4-yl]amino}-2-hydroxycyclopentyl]methyl sulfamate] | 99 | < 10
Cc1sc(C(=O)c2cncnc2N[C@@H]2C[C@H](COS(N)(=O)=O)[C@@H](O)C2)cc1[C@@H]1OCCc2cccnc21 (single isomer, unassigned) [I-285a, [(1R,2S,4R)-4-{[5-({4-[(8S)-5,8-dihydro-6H-pyrano[3,4-b]pyridin-8-yl]-5-methyl-2-thienyl}carbonyl)pyrimidin-4-yl]amino}-2-hydroxycyclopentyl]methyl sulfamate or [(1R,2S,4R)-4-{[5-({4-[(8R)-5,8-dihydro-6H-pyrano[3,4-b]pyridin-8-yl]-5-methyl-2-thienyl}carbonyl)pyrimidin-4-yl]amino}-2-hydroxycyclopentyl]methyl sulfamate] | 101 | < 10
Cc1sc(C(=O)c2cncnc2N[C@@H]2C[C@H](COS(N)(=O)=O)[C@@H](O)C2)cc1[C@@H]1OCCc2cccnc21 (single isomer, unassigned) [I-285b, [(1R,2S,4R)-4-{[5-({4-[(8S)-5,8-dihydro-6H-pyrano[3,4-b]pyridin-8-yl]-5-methyl-2-thienyl}carbonyl)pyrimidin-4-yl]amino}-2-hydroxycyclopentyl]methyl sulfamate or [(1R,2S,4R)-4-{[5-({4-[(8R)-5,8-dihydro-6H-pyrano[3,4-b]pyridin-8-yl]-5-methyl-2-thienyl}carbonyl)pyrimidin-4-yl]amino}-2-hydroxycyclopentyl]methyl sulfamate] | 44 | 100 to 1000
Cc1sc(C(=O)c2cncnc2N[C@@H]2C[C@H](COS(N)(=O)=O)[C@@H](O)C2)cc1[C@@H]1OCCc2ccc(Cl)nc21 (single isomer, unassigned) [I-286a, [(1R,2S,4R)-4-{[5-({4-[(8S)-2-chloro-5,8-dihydro-6H-pyrano[3,4-b]pyridin-8-yl]-5-methyl-2-thienyl}carbonyl)pyrimidin-4-yl]amino}-2-hydroxycyclopentyl]methyl sulfamate or [(1R,2S,4R)-4-{[5-({4-[(8R)-2-chloro-5,8-dihydro-6H-pyrano[3,4-b]pyridin-8-yl]-5-methyl-2-thienyl}carbonyl)pyrimidin-4-yl]amino}-2-hydroxycyclopentyl]methyl sulfamate] | 39 | 100 to 1000
Cc1sc(C(=O)c2cncnc2N[C@@H]2C[C@H](COS(N)(=O)=O)[C@@H](O)C2)cc1[C@@H]1OCCc2ccc(Cl)nc21 (single isomer, unassigned) [I-286b, [(1R,2S,4R)-4-{[5-({4-[(8S)-2-chloro-5,8-dihydro-6H-pyrano[3,4-b]pyridin-8-yl]-5-methyl-2-thienyl}carbonyl)pyrimidin-4-yl]amino}-2-hydroxycyclopentyl]methyl sulfamate or [(1R,2S,4R)-4-{[5-({4-[(8R)-2-chloro-5,8-dihydro-6H-pyrano[3,4-b]pyridin-8-yl]-5-methyl-2-thienyl}carbonyl)pyrimidin-4-yl]amino}-2-hydroxycyclopentyl]methyl sulfamate] | 99 | < 10
Cc1nc2c(s1)CCO[C@H]2c1cc(C(=O)c2cncnc2N[C@@H]2C[C@H](COS(N)(=O)=O)[C@@H](O)C2)sc1C (single isomer, unassigned) [I-287a, [(1R,2S,4R)-2-hydroxy-4-{[5-({5-methyl-4-[(4S)-2-methyl-6,7-dihydro-4H-pyrano[3,4-d][1,3]thiazol-4-yl]-2-thienyl}carbonyl)pyrimidin-4-yl]amino}cyclopentyl]methyl sulfamate or [(1R,2S,4R)-2-hydroxy-4-{[5-({5-methyl-4-[(4R)-2-methyl-6,7-dihydro-4H-pyrano[3,4-d][1,3]thiazol-4-yl]-2-thienyl}carbonyl)pyrimidin-4-yl]amino}cyclopentyl]methyl sulfamate] | 9 | 100 to 1000
Cc1nc2c(s1)CCO[C@H]2c1cc(C(=O)c2cncnc2N[C@@H]2C[C@H](COS(N)(=O)=O)[C@@H](O)C2)sc1C (single isomer, unassigned) [I-287b, [(1R,2S,4R)-2-hydroxy-4-{[5-({5-methyl-4-[(4S)-2-methyl-6,7-dihydro-4H-pyrano[3,4-d][1,3]thiazol-4-yl]-2-thienyl}carbonyl)pyrimidin-4-yl]amino}cyclopentyl]methyl sulfamate or [(1R,2S,4R)-2-hydroxy-4-{[5-({5-methyl-4-[(4R)-2-methyl-6,7-dihydro-4H-pyrano[3,4-d][1,3]thiazol-4-yl]-2-thienyl}carbonyl)pyrimidin-4-yl]amino}cyclopentyl]methyl sulfamate] | 98 | < 10
NS(=O)(=O)OC[C@H]1C[C@@H](Nc2ncncc2C(=O)c2cc([C@@H]3OCC(F)(F)c4ccc(Cl)cc43)cs2)C[C@@H]1O (single isomer, unassigned) [I-289a, [(1R,2S,4R)-4-{[5-({4-[(1R)-7-chloro-4,4-difluoro-3,4-dihydro-1H-isochromen-1-yl]-2-thienyl}carbonyl)pyrimidin-4-yl]amino}-2-hydroxycyclopentyl]methyl sulfamate or [(1R,2S,4R)-4-{[5-({4-[(1S)-7-chloro-4,4-difluoro-3,4-dihydro-1H-isochromen-1-yl]-2-thienyl}carbonyl)pyrimidin-4-yl]amino}-2-hydroxycyclopentyl]methyl sulfamate] | 16 | 100 to 1000
